Test results from patent US6348614B1 (priority 1996, dated 2002).
Like-named read-outs stand apart in the source and are kept apart here.

Columns and labels:
Phytophthora infestans [1] = conditions: applied to leaves of tomato; cited from earlier work
cladosporium cucumerinum = conditions: cited from earlier work
Phytophthora infestans [2] = type: in vivo
Phytophthora infestans [3] = type: in vivo; remark: listed apart in the source
[4] = system: Erysiphe graminis tritici; test: Powdery mildew in wheat (Table 5)
From the text: (§1) For the following experiments we have used 10-days old potted wheat plants (Triticum asetivum cultivar Atir) and barley plants (Hhordeum vulgaris cultivar Amidon).
(§2) Plants were sprayed with the test compounds and two days lated were inoculated with the powdery mildew fungal pathogens. Wheat was inoculated with Erysiphe granims tritici. Barley was inoculated with the powdery Erysiphe granims hordei.
(§3) Inoculation was done by shaking infected donor plants harboring abundant conidia over the treated plants. Untreated plants were also inoculated as controls. Inoculated plants were placed in a growth chamber at 20-22C with 1 rhr photoperioed and 50-60% RH. At 9-10 days after inoculation disease intesity was visually assessed by estimating the percentage leaf area occupied by fungal colonies.
(§4) Control efficacy of the disease achieved by the sprayed test compound was calculated relative to the amount of disease seen in the control.

Erysiphe graminis hordei = test: Powdery mildew in barley (Table 5)
From the text: as §1, §2, §3, §4

[5] = Wheat 7.8.96, dose 500 (unit not given)
[6] = Wheat 7.8.96, dose 2000 (unit not given)
[7] = Barley 17.9.96, dose 500 (unit not given)
[8] = Barley 17.9.96, dose 2000 (unit not given)

Row | Compound | behaviour as chemotherapeutant against the fungus on cucumber (cladosporium cucumerinum) | Control Efficacy % [4, 5] | Control Efficacy % [4, 6] | Control Efficacy % (Erysiphe graminis hordei; [7]) | Control Efficacy % (Erysiphe graminis hordei; [8]) | other results
1 | CC(N)CC(=O)O (racemic) [DL-β-aminobutyric acid] |  |  |  |  |  | protection of tomato leaves (Phytophthora infestans [1]): protected those leaves
2 | NC(CO)C(=O)O (racemic) [DL-serine] | behaved as chemothrerpeutants |  |  |  |  | 
3 | N-β-methyl benzoyl-3 aminobutyric acid-sec. butyl ester [Example 4] |  | 96% | 96% | 87% | 95% | Control Efficacy % (Phytophthora infestans [2]; Potato, 14.8.96, 2000 ppm): 77%; Control Efficacy % (Phytophthora infestans [2]; Potato, 17.7.096, 500 ppm): 56%; Control Efficacy % (Phytophthora infestans [2]; Potato, 17.7.096, 2000 ppm): 75%; Control Efficacy % (Phytophthora infestans [2]; Potato, 26.7.96, 500 ppm): 23%; Control Efficacy % (Phytophthora infestans [2]; Potato, 26.7.96, 2000 ppm): 42%; Control Efficacy % (Phytophthora infestans [3]; Tomato, 12.7.96, 2000 ppm): 85%; Control Efficacy % (Phytophthora infestans [3]; Tomato, 14.8/96, 2000 ppm): 90%
4 | C[C@@H](O)[C@H](N)C(=O)O (racemic) [DL-threonine] | behaved as chemothrerpeutants |  |  |  |  | 
5 | CCCCCCCCOC(=O)CC(C)NC(=O)c1ccc(Cl)c(Cl)c1 (racemic) [Example 5, D,L-N-3,4-dichlorobenzoyl-3-aminobutyric acid n-octyl ester] |  | 76% | 92% | 82% | 85% | 
6 | N[C@H](CO)C(=O)O [D-serine] | behaved as chemothrerpeutants |  |  |  |  | 
